From patent publication US20240217990A1 (Gilead Sciences, Inc., priority 2021, published 2024)

Tests used:
[1] = biological target: T1, TLR7 (Homo sapiens, UniProt Q9NYK1); assay: TLR7 human PBMC cell-based assay (antagonist, GS-986 stimulated cytokine release); conditions: human PBMCs; TLR7 agonist GS-986 400 nM, 6 hours; cytokines (IL-6 and IFNα) in supernatant; read-out: TLR-7 EC50
T1 construct: Human peripheral blood mononuclear cells (PBMCs) consist of lymphocytes, monocytes and dendritic cells that express TLR7, TLR8 and TLR9; endogenous in cells; host or cells: cryopreserved human PBMCs from healthy donors
T1 sequence (Q9NYK1 27-1049): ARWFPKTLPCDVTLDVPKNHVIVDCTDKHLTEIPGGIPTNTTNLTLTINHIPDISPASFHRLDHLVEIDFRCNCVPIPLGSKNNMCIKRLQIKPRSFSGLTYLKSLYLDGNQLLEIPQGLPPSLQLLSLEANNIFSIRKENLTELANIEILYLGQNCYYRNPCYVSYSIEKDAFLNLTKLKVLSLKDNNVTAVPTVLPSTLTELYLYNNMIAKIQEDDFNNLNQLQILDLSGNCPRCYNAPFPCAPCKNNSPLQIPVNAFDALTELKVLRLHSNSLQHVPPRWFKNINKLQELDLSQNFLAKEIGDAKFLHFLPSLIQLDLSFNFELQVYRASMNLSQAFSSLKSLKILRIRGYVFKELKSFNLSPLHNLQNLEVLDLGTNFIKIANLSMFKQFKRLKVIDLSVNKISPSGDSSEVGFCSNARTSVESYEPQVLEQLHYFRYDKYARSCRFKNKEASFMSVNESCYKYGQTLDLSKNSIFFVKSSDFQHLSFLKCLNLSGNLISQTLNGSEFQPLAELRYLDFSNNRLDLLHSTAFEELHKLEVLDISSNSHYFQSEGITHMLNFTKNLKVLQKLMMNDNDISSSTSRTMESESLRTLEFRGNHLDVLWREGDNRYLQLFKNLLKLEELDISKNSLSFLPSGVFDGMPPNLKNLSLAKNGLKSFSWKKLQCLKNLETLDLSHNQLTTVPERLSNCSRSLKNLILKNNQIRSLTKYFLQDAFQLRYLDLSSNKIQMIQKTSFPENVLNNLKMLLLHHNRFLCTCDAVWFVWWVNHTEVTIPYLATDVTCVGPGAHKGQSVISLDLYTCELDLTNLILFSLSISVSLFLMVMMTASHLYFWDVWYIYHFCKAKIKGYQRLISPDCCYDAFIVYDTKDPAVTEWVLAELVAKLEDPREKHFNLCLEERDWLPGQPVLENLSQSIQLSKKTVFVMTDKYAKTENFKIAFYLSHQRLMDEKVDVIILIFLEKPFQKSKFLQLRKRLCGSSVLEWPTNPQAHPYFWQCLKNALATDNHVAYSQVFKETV
Outline: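 EC50 derived by sigmoidal fitting of IL-6 and IFNα levels, quantified by electrochemiluminescence in supernatants of human PBMCs given 400 nM GS-986 for 6 h. Cells (100,000/well in RPMI-1640, 10% FBS) had received test antagonist 1 h beforehand, 10 doses in quadruplicate, at 37 °C.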

[2] = biological target: T2, TLR8 (Homo sapiens, UniProt Q9NR97); assay: TLR8 human PBMC cell-based assay (antagonist, Compound A stimulated cytokine release); conditions: human PBMCs; TLR8 agonist Compound A 800 nM, 6 hours; cytokines (TNFa and IL 12p40) in supernatant; read-out: TLR-8 EC50
T2 construct: Human peripheral blood mononuclear cells (PBMCs) consist of lymphocytes, monocytes and dendritic cells that express TLR7, TLR8 and TLR9; endogenous in cells; host or cells: cryopreserved human PBMCs from healthy donors
T2 sequence (Q9NR97 27-1041): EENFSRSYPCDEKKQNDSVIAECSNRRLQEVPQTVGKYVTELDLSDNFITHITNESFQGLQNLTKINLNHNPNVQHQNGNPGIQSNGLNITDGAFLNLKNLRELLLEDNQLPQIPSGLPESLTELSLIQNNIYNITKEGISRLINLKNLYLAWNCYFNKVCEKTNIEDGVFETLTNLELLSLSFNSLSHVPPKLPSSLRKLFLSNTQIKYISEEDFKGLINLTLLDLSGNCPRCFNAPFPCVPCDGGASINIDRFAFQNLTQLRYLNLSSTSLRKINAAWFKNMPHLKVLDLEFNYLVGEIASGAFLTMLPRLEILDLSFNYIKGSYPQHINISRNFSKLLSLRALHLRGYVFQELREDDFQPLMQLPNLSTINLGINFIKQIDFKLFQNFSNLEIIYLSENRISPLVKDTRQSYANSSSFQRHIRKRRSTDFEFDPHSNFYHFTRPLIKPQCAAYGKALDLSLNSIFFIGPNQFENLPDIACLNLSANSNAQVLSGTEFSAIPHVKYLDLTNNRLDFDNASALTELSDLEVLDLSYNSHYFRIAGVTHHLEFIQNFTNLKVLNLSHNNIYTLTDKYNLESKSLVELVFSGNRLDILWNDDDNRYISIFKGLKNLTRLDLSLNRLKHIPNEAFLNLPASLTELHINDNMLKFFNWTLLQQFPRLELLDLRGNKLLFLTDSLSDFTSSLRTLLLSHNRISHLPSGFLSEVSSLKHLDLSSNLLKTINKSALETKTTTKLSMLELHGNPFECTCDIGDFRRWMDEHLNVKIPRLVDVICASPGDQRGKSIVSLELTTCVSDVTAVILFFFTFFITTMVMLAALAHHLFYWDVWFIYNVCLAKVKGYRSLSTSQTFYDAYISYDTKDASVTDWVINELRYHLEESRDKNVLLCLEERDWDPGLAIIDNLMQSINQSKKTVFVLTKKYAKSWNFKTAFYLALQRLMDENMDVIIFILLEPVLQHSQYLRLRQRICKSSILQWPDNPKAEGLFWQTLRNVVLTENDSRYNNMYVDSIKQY
Outline: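 Cryopreserved donor PBMCs (100,000/well, RPMI + 10% FBS) were preincubated 1 h with antagonist (10-point dose response, quadruplicate), then stimulated with Compound A (800 nM final) for 6 h at 37 °C. TNFa and IL-12p40 in supernatants were measured by electrochemiluminescence; sigmoidal fits gave EC50.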

Compound | EC50 [1] | EC50 [2]
Cc1c(-c2[nH]c3cc(C(=O)N(C)C4CCNCC4)sc3c2C(C)C)cn2ncnc2c1C [Example 150] | 1 nM | 2.5 nM
Cc1c(-c2[nH]c3cc(C(=O)N(C)C4CCN(C)CC4)sc3c2C(C)C)cn2ncnc2c1C [Example 151] | 0.8 nM | 0.6 nM
Cc1cc(-c2[nH]c3cc(C(=O)N4CCN[C@H](C(F)(F)F)C4)sc3c2C(C)C)cn2ncnc12 [Example 152] | 90.9 nM | 58.9 nM
Cc1cc(-c2[nH]c3cc(C(=O)N(C)[C@@H]4CCCNC4)sc3c2C(C)C)cn2ncnc12 [Example 153] | 2.4 nM | 6.5 nM
Cc1cc(-c2[nH]c3cc(C4CCNCC4)sc3c2C(C)C)cn2ncnc12 [Example 154, 6-isopropyl-5-(8-methyl-[1,2,4]triazolo[1,5-a]pyridin-6-yl)-2-(piperidin-4-yl)-4H-thieno[3,2-b]pyrrole] | 0.6 nM | 3.6 nM
Cc1cc(-c2[nH]c3cc(C4CCCNC4)sc3c2C(C)C)cn2ncnc12 (stereo not shown) [Example 155] | 4.8 nM | 5.7 nM
Cc1cc(-c2[nH]c3cc(C4CC5CCC(C4)N5)sc3c2C(C)C)cn2ncnc12 (stereo not shown) [Example 156] | 0.1 nM | 8.8 nM
Cc1cc(-c2[nH]c3cc(C4CCC5CNCC5C4)sc3c2C(C)C)cn2ncnc12 (stereo not shown) [Example 157] | 0.3 nM | 31.7 nM
Cc1cc(-c2[nH]c3cc(C4CC5CNCC5C4)sc3c2C(C)C)cn2ncnc12 (stereo not shown) [Example 158] | 0.2 nM | 12.9 nM
Cc1cc(-c2[nH]c3cc(C4CCCC5(CNC5)C4)sc3c2C(C)C)cn2ncnc12 (stereo not shown) [Example 159] | 1.2 nM | 37.5 nM
Cc1cc(-c2[nH]c3cc(C4CCC5(CC4)CNC5)sc3c2C(C)C)cn2ncnc12 [Example 160] | 0.4 nM | 7.1 nM
Cc1cc(-c2[nH]c3cc(C4CCNC4)sc3c2C(C)C)cn2ncnc12 (stereo not shown) [Example 161] | 9.6 nM | 12.4 nM
Cc1cc(-c2[nH]c3cc(C4CCC5(CNC5)C4)sc3c2C(C)C)cn2ncnc12 (stereo not shown) [Example 162] | 0.6 nM | 11.2 nM
Cc1cc(-c2[nH]c3cc(C4CCN(CC(N)=O)CC4)sc3c2C(C)C)cn2ncnc12 [Example 164, 2-[4-[6-isopropyl-5-(8-methyl-[1,2,4]triazolo[1,5-a]pyridin-6-yl)-4H-thieno[3,2-b]pyrrol-2-yl]-1-piperidyl]acetamide] | 1.5 nM | 2.8 nM
Cc1cc(-c2[nH]c3cc(C4=NC5(CCN(CC(N)=O)CC5)CO4)sc3c2C(C)C)cn2ncnc12 [Example 165] | 1.7 nM | 116 nM
Cc1cc(-c2[nH]c3cc(-c4nc(C5CCN(CC(N)=O)CC5)no4)sc3c2C(C)C)cn2ncnc12 [Example 166] | 5.1 nM | 5.1 nM
Cc1cc(-c2[nH]c3cc(C(=O)N(C4CCC4)C4CCN(CC(N)=O)CC4)sc3c2C(C)C)cn2ncnc12 [Example 167] | 14 nM | 52.7 nM
Cc1cc(-c2[nH]c3cc(-c4nnc(C5CCN(CC(N)=O)CC5)s4)sc3c2C(C)C)cn2ncnc12 [Example 168] | 2.7 nM | 2.8 nM
CCc1c(-c2cc(C)c3ncnn3c2)[nH]c2cc(-c3nc4ccc(N5CCN(CC(N)=O)CC5)cc4[nH]3)sc12 [Example 169] | 146 nM | 72 nM

Second part, the molecule after the results:

EC50 [1] | EC50 [2] | Compound
1.2 nM | 10.5 nM | Cc1cc(-c2[nH]c3cc(-c4ccc5nc(C6[C@H]7CC[C@H](C7)N6CC(N)=O)[nH]c5c4)sc3c2C(C)C)cn2ncnc12 (stereo partly shown) [Example 170]
24.5 nM | 14.6 nM | Cc1cc(-c2[nH]c3cc(C4CCCN(CC(N)=O)C4)sc3c2C(C)C)cn2ncnc12 (stereo not shown) [Example 171]
13.5 nM | 6 nM | Cc1cc(-c2[nH]c3cc(-c4cnn(C5CCN(CC(N)=O)CC5)c4)sc3c2C(C)C)cn2ncnc12 [Example 172]
8 nM | 4.8 nM | Cc1cc(-c2[nH]c3cc(-c4cnc5c(c4)CN(CC(N)=O)CC5)sc3c2C(C)C)cn2ncnc12 [Example 173]
11.4 nM | 16.8 nM | Cc1cc(-c2[nH]c3cc(C(=O)N(C)CC4CCN(CC(N)=O)CC4)sc3c2C(C)C)cn2ncnc12 [Example 174]
0.8 nM | 4.1 nM | Cc1cc(-c2[nH]c3cc(C(=O)N4CCC5(CCN(CC(N)=O)C5)CC4)sc3c2C(C)C)cn2ncnc12 [Example 175]
6.5 nM | 22.2 nM | Cc1cc(-c2[nH]c3cc(C(=O)N4CCC5(CCN(CC(N)=O)CC5)C4)sc3c2C(C)C)cn2ncnc12 [Example 176]
0.2 nM | 1 nM | Cc1cc(-c2[nH]c3cc(C4CCC5(CC4)CN(CC(N)=O)C5)sc3c2C(C)C)cn2ncnc12 [Example 177]
1.3 nM | 17.4 nM | Cc1cc(-c2[nH]c3cc(C(=O)N(C)C4CCN(CC(N)=O)CC4)sc3c2C(C)C)cn2ncnc12 [Example 178]
12.5 nM | 33 nM | Cc1cc(-c2[nH]c3cc(C(=O)N(C)[C@H]4CCN(CC(N)=O)C4)sc3c2C(C)C)cn2ncnc12 [Example 179]
0.7 nM | 11.5 nM | Cc1cc(-c2[nH]c3cc(C(=O)N(C)C4CCN(C(=O)CN(C)C)CC4)sc3c2C(C)C)cn2ncnc12 [Example 180]
1 nM | 7.7 nM | Cc1cc(-c2[nH]c3cc(C4CCN(C(=O)CN(C)C)CC4)sc3c2C(C)C)cn2ncnc12 [Example 181]
8.8 nM | 40.2 nM | Cc1cc(-c2[nH]c3cc(C(=O)N(C)C4CCN(CC#N)CC4)sc3c2C(C)C)cn2ncnc12 [Example 182]
17.5 nM | 32.4 nM | Cc1cc(-c2[nH]c3cc(C(=O)N(C)C4CCN(CCC#N)CC4)sc3c2C(C)C)cn2ncnc12 [Example 183]
0.2 nM | 2.8 nM | Cc1cc(-c2[nH]c3cc(C4CCN(S(=O)(=O)C5CCNCC5)CC4)sc3c2C(C)C)cn2ncnc12 [Example 184]
0.2 nM | 8.7 nM | Cc1cc(-c2[nH]c3cc(C4CCC5(CC4)CN(C(=O)CN(C)C)C5)sc3c2C(C)C)cn2ncnc12 [Example 185]
